This note sets out measurements from patent US11312688B2, “Pyrazole compound” (Sumitomo Dainippon Pharma Co., Ltd., priority 2011, dated 2022).

Test [1] concerns the target human serotonin transporter (h-SERT) (Homo sapiens (Human), UniProt P31645). The experiment in a line: [3H] citalopram binding assay to evaluate human serotonin reuptake inhibitory action (h-SERT binding assay). The following applies: h-SERT binding inhibition constant Ki, Test Ex. 1.
Procedure: Citalopram Binding Assay to Evaluate Human Serotonin Reuptake Inhibitory Action
In the experiment, human serotonin transporter (h-SERT) was expressed in CHO cells (h-SERT/CHO). The cells were incubated with F12 containing 10% FCS, 500 μg/mL Geneticin and 100 U/mL penicillin-100 μg/mL streptmycin (all manufactured by Sigma Aldrich) in an incubator containing 5% CO2; detached and collected using a SERT buffer [50 mmol/L Tris-HCl comprising 120 mmol/L NaCl and 5 mmol/L KCl (pH=7.4)]; homogenized with a homogenizer manufactured by Teflon (trademark); and then centrifuged (50,000×g, 30 min, 4° C.). The precipitate was suspended again in the appropriate amount of SERT buffer (to give a membrane preparation), and stored at −80° C. until used. The amount of protein in the membrane preparation was assayed by Dye Reagent Concentrate (manufactured by BIO-RAD) using bovine serum albumin (manufactured by Sigma Aldrich) as a standard.
The [^3H] citalopram binding was measured according to the method disclosed in Owens M. J. et al., J. Pharm. […] The glass fiber filter was washed twice with 250 HL of the SERT buffer, placed in a plastic vial containing 4 mL of liquid scintillator (ACS-II, manufactured by Amersham) or Ecoscint A (manufactured by National Diagnostics), and the remaining radioactivity on the filter paper was assayed with a liquid scintillation counter.
Test [2] addresses T1, human serotonin 2C receptor (h-5-HT2C) (Homo sapiens (Human), UniProt P28335). The experiment in a line: 5-HT2C receptor agonistic action assay (FLIPR Calcium 4, h-5-HT2C/CHO cells; agonistic / inverse agonistic action). It counts as cell-based. As for the experimental part: 3-1. The Cells and Inoculation Thereof
In the experiment, human serotonin 2C receptor (h-5-HT2C) was expressed in CHO cells (h-5-HT2C/CHO). The cells were incubated with UltraCHO Lipuid (trademark) (manufactured by BioWhitakker) containing 1% FBS, 400 μg/mL Geneticin, 100 U/mL penicillin-100 μg/mL streptomycin (all manufactured by Sigma Aldrich) and 250 μg/mL Zeosin (manufactured by InvivoGen) in an incubator containing 5% CO2. On the day before using the cells, they were detached and collected using 250 μg/mL Trypsin solution (manufactured by Nacalai Tesque), then inoculated in a 96 well flat clear bottom black polystyrene TC-treated microplates (manufactured by Corning) at 40000 cells/well/60 μL in an incubator containing 5% CO2 for 16 hours to 24 hours.
3-2. 5-HT2C Receptor Agonistic Action Assay
The 5-HT2C receptor agonistic action was evaluated with FLIPR Calcium 4 Assay kit (manufactured by Molecular Devices). In specific, to the cells inoculated in the plate were added Component A of FLIPR Calcium 4 Assay kit dissolved in 100 mL of HHBP buffer (1×Hanks buffer, 20 mmol/L HEPES, both manufactured by Gibco) at an amount of 40 μL/well, and the cells were incubated in an incubator containing 5% CO2 for 1 hour. Then, the cells were set in FLIPR TETRA (trademark) (manufactured by Molecular Devices), to the cells was added the test material diluted with HHBP buffer, 2.5 mmol/L Probenecid (manufactured by Sigma) (concentration after dilution: 10 μmol/L) at an amount of 20 μL/well, and the fluorescence was measured. Then, in order to evaluate the antagonistic action of the test material, 20 μL/well of 5-HT solution (manufactured by Sigma, final concentration: 0.1 nmol/L) was further added to the cells, and the fluorescence was measured.
The 5-HT2C receptor agonistic action of each test material was calculated as a rate of fluorescence enhancement wherein 100% was defined as a value when the cells were given 10 μmol/L 5-HT. Furthermore, the 5-HT2C receptor inverse agonistic action was calculated as a rate of fluorescence decay wherein −100% was defined as a value when the cells were given 10 μmol/L SB206553 (manufactured by Sigma Aldrich). A lower value of the 5-HT2C receptor agonistic action of the test material means that the material has a higher antagonistic action. In particular, when the value of the 5-HT2C receptor agonistic action of the test material is below 0%, the material has an inverse agonistic action for 5-HT2C receptor.

Test [3] deals with T1, human serotonin 2C receptor (h-5-HT2C). The experiment in a line: [3H] mesulergine binding assay to evaluate affinity for human 5-HT2C receptor. The following applies: Test Ex. 2, h-5-HT2C/CHO membrane preparation, read-out: 5-HT2C receptor binding inhibition constant Ki.
Procedure: Mesulergine Binding Assay to Evaluate Affinity for Human 5-HT2C Receptor
Preparation of the Cells and Membrane Preparations
In the experiment, human serotonin 2C receptor (h-5-HT2C) was expressed in CHO cells (h-5-HT2C/CHO). The cells were incubated with UltraCHO Lipuid (trademark) (manufactured by BioWhitakker) containing 1% FBS, 400 μg/mL Geneticin, 100 U/mL penicillin-100 μg/mL streptomycin (all manufactured by Sigma Aldrich) and 250 μg/mL Zeosin (manufactured by InvivoGen) in an incubator containing 5% CO2; detached and collected using 50 mmol/L Tris-HCl (pH=7.4); homogenized with a homogenizer manufactured by Teflon (trademark); and then centrifuged (48,000×g, 25 min, 4° C.). […]
A solution of 200 μL in total was prepared by mixing 50 μL of [^3H] mesulergine (manufactured by GE Healthcare) diluted with 50 mmol/L Tris-HCl (pH=7.4) (final concentration: about 2 nmol/L), 149 μL of the h-5-HT2C/CHO membrane preparation (protein amount: 20 μg/well), and 1 μL of the test drug dissolved in dimethylsulfoxide. […] The glass fiber filter was washed twice with 250 μL of 50 mmol/L Tris-HCl (pH=7.4), placed in a plastic vial containing 4 mL of liquid scintillator (ACS-II, manufactured by Amersham) or Ecoscint A (manufactured by National Diagnostics), and the remaining radioactivity on the filter paper was assayed with a liquid scintillation counter. […]

T1 sequence (P28335 whole entry, looked up): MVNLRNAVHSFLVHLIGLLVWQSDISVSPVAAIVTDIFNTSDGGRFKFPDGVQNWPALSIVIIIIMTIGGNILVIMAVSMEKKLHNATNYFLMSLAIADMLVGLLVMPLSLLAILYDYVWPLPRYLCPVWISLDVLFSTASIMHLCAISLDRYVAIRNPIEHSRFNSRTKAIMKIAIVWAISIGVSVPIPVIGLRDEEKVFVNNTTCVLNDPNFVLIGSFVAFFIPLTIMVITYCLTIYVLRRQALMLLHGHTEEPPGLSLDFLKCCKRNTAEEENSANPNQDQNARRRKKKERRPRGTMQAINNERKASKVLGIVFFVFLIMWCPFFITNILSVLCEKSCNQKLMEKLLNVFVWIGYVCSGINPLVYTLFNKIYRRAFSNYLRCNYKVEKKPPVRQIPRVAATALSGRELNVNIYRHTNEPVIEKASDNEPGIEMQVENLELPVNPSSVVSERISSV

In the case of `CNCc1cc(OCc2cc(Cl)ccc2F)n(CC2CCCCO2)n1` (single isomer, unassigned; (-)) [Example 474, (−)-1-{5-[(5-chloro-2-fluorobenzyl)oxy]-1-(tetrahydro-2H-pyran-2-ylmethyl)-1H-pyrazol-3-yl}-N-methylmethanamine], the results for the Ki in test [1] and in test [3] were 11 nM and 16 nM, respectively. The “5-HT2C receptor agonistic action” value in test [2] is −111%.

The term Ki denotes a measure of affinity in units of concentration, obtained from inhibition or displacement.
